Laboratory results from patent EP4000627A1, “TREATMENT OF ABDOMINAL AORTIC ANEURYSM AFTER ITS CLINICAL MANIFESTATION” (Fundacion Instituto De Investigacion Sanitaria Fundacion …, priority 2020, dated 2022).
Where a SMILES comes first, the peptide text is derived from it. Bridges are numbered along the chain shown (N, C = ends). [ ]: non-standard residue; d: D form. The star is where a group is joined. 1Nal = N[C@@H](Cc1cccc2ccccc12)C(=O)O; Acm = CC(=O)NC*

Key:
in vitro = assay: in vitro
Method: (§1) S1 and S1PS5 peptides derived from SOCS1 KIR domain (residues 53-68) conjugated with the cell penetrating sequences at N-terminal were synthesized by solid phase method following the Fmoc strategy, purified by preparative reverse phase-HPLC and lyophilized. Peptides were dissolved in 1% DMSO in saline solution (S1) and H2O (S1PS5), then filter-sterilized and stored at -80°C before use. For biodistribution studies, peptides were labelled with rhodamine or carboxytetramethylrhodamine (TAMRA) at N-terminal. For stability assays, peptides were incubated at 37°C with 25% foetal bovine serum (FBS). At selected times, 80 µL aliquots were taken, precipitated with 15% trichloroacetic acid, and further analysed by reverse phase HPLC with UV detector.

mouse VSMC = assay: cellular uptake of TAMRA-conjugated S1PS5 peptides (confocal microscopy); format: cell-based; conditions: for degraded in cells: at 24 hours, TAMRA fluorescence intensity; for efficient uptake after: quantification of peptide internalization by TAMRA fluorescence intensity
[1] = 24 hours post-injection
Method: as §1

SMILES | metabolised at 20 h (in vitro; 25% foetal bovine serum) | degraded in cells (mouse VSMC) | efficient uptake after (mouse VSMC) | degradation rate (in vitro; 25% FBS, 37°C, at 17-20 hours) | remaining at 42 h (in vitro; 25% foetal bovine serum) | localization in aortic tissue (confocal analysis) [1]
CC(=O)NCSC[C@@H]1NC(=O)[C@H]([C@@H](C)O)NC(=O)[C@@H](NC(=O)CNC(=O)CNC(=O)[C@H](CCC(N)=O)NC(=O)[C@@H]2CCCN2C(=O)[C@@H]2CCCN2C(=O)[C@H](CCCNC(=N)N)NC(=O)[C@H](CCCNC(=N)N)NC(=O)[C@H](CCCNC(=N)N)NC(=O)[C@H](CCC(N)=O)NC(=O)[C@H](CCCNC(=N)N)NC(=O)[C@H](CCCNC(=N)N)NC(=O)[C@H](CCCCN)NC(=O)[C@H](CCCCN)NC(=O)[C@H](CCCNC(=N)N)NC(=O)CN)CC(=O)NCCCC[C@@H](C(=O)N[C@@H](Cc2c[nH]cn2)C(=O)O)NC(=O)[C@H](CCCNC(=N)N)NC(=O)[C@H](Cc2ccccc2)NC(=O)[C@H]([C@@H](C)O)NC(=O)[C@H](CCC(N)=O)NC(=O)[C@H](CCCNC(=N)N)NC1=O [internal cyclic S1PS5, GRKKRRQRRRPPQGGDTCAcmRQTFRKH] (H-GRKKRRQRRRPPQGGDTC(Acm)RQTFRKH-OH; lactam 16-24) | ~40% | almost completely degraded | ~2 h |  |  | 
CC(=O)NCSC[C@H](NC(=O)[C@@H](NC(=O)[C@H](CC(=O)O)NC(=O)CNC(=O)CNC(=O)[C@H](CCC(N)=O)NC(=O)[C@@H]1CCCN1C(=O)[C@@H]1CCCN1C(=O)[C@H](CCCNC(=N)N)NC(=O)[C@H](CCCNC(=N)N)NC(=O)[C@H](CCCNC(=N)N)NC(=O)[C@H](CCC(N)=O)NC(=O)[C@H](CCCNC(=N)N)NC(=O)[C@H](CCCNC(=N)N)NC(=O)[C@H](CCCCN)NC(=O)[C@H](CCCCN)NC(=O)[C@H](CCCNC(=N)N)NC(=O)CN)[C@@H](C)O)C(=O)N[C@@H](CCCNC(=N)N)C(=O)N[C@@H](CCC(N)=O)C(=O)N[C@H](C(=O)N[C@@H](Cc1ccccc1)C(=O)N[C@@H](CCCNC(=N)N)C(=O)N[C@@H](CO)C(=O)N[C@@H](Cc1c[nH]cn1)C(=O)O)[C@@H](C)O [linear S1PS5, GRKKRRQRRRPPQGGDTCAcmRQTFRSH] (H-GRKKRRQRRRPPQGGDTC(Acm)RQTFRSH-OH) |  |  |  | 40% |  | 
CC(=O)NCSC[C@@H]1NC(=O)[C@H]([C@@H](C)O)NC(=O)[C@@H](NC(=O)CNC(=O)CNC(=O)[C@H](CCC(N)=O)NC(=O)[C@@H]2CCCN2C(=O)[C@@H]2CCCN2C(=O)[C@H](CCCNC(=N)N)NC(=O)[C@H](CCCNC(=N)N)NC(=O)[C@H](CCCNC(=N)N)NC(=O)[C@H](CCC(N)=O)NC(=O)[C@H](CCCNC(=N)N)NC(=O)[C@H](CCCNC(=N)N)NC(=O)[C@H](CCCCN)NC(=O)[C@H](CCCCN)NC(=O)[C@H](CCCNC(=N)N)NC(=O)CN)CC(=O)NCCCC[C@@H](C(=O)N[C@@H](Cc2c[nH]cn2)C(=O)O)NC(=O)[C@H](CCCNC(=N)N)NC(=O)[C@H](Cc2cccc3ccccc23)NC(=O)[C@H]([C@@H](C)O)NC(=O)[C@H](CCC(N)=O)NC(=O)[C@H](CCCNC(=N)N)NC1=O [internal cyclic S1PS5 Nal1, GRKKRRQRRRPPQGGDTCAcmRQTNal1RKH] (H-GRKKRRQRRRPPQGGDTC(Acm)RQT[1Nal]RKH-OH; lactam 16-24) | ~20% | 40% | ~2 h |  | ~40% | detected
